Assay results reported in paper PMC11721293 (JCI Insight, 2025).

Tested on: VSV-SARS-CoV-2-S pseudovirus
Assay: microbe, parasite or virus in culture
Assay type: cell-based
Settings: for EC50: read-out: EC50

Structure (SMILES)	Max % [%]	EC50 [µM]
CCc1ccc2c(c1)N(CC(C)CN(C)C)c1ccccc1S2.Cl (stereo not drawn) [NCGC00014485]	90.9	2.8
c1ccc2c(c1)Sc1ccccc1N2C[C@H]1CN2CCC1CC2 [NCGC00014679]	100.0	1.5
CN1[C@@H]2CC[C@H]1CC(O[C@@H](c1ccccc1)c1ccc(Cl)cc1)C2 (stereo partly drawn) [NCGC00015195]	100.0	3.1
CN(C)CC[C@H](c1ccc(Cl)cc1)c1ccccn1 [NCGC00015227]		> 30
Clc1ccc(Cn2c(CN3CCCC3)nc3ccccc32)cc1 [NCGC00015243]		> 30
CN1CCC(=C2c3ccccc3C=Cc3ccccc32)CC1 [NCGC00015252]	52.7	12.3
CN(C)CCCN1c2ccccc2Sc2ccc(Cl)cc21 [NCGC00015273]		> 30
CN(C)CCOC(c1ccccc1)c1ccccc1 [NCGC00015335]	17.9	
CC(C)(C(=O)O)c1ccc([C@@H](O)CCCN2CCC(C(O)(c3ccccc3)c3ccccc3)CC2)cc1 [NCGC00015453]		> 30
CN1CCC(=C2c3ccccc3CC(=O)c3sccc32)CC1 [NCGC00015580]		> 30
CCOC(=O)N1CCC(=C2c3ccc(Cl)cc3CCc3cccnc32)CC1 [NCGC00015619]		> 30
CN(C)CCN(Cc1cccs1)c1ccccn1 [NCGC00015704]		> 30
Cc1ccccc1[C@@H](OCCN(C)C)c1ccccc1 [NCGC00015771]	25.1	> 30
C[C@@H](CN1c2ccccc2Sc2ccccc21)N(C)C [NCGC00015817]	87.0	4.5
COc1ccc(CN(CCN(C)C)c2ccccn2)cc1 [NCGC00015822]	49.2	> 30
CN1CCC(OC(c2ccccc2)c2ccccc2)CC1 [NCGC00016395]	51.1	5.2
c1ccc(CN(CC2=NCCN2)c2ccccc2)cc1 [NCGC00016613]		> 30

Structure (SMILES)	Max % [%]	EC50 [µM]
OC(CCCN1CCCCC1)(c1ccccc1)c1ccccc1 [NCGC00016624]	57.9	12.8
CN(C)CCN(Cc1ccc(Cl)cc1)c1ccccn1 [NCGC00016672]	77.6	11.1
COc1ccc(CCN2CCC(Nc3nc4ccccc4n3Cc3ccc(F)cc3)CC2)cc1 [NCGC00016913]	79.3	8.4
C[C@@H]1CN(C2CCC(C#N)(c3ccc(F)cc3)CC2)CC[C@]1(C(=O)O)c1ccccc1.Cl (stereo partly drawn) [NCGC00016939]	37.9	> 30
Cc1cccc(CN2CCN([C@@H](c3ccccc3)c3ccc(Cl)cc3)CC2)c1 [NCGC00018296]	54.8	> 30
Cc1ccc(/C(=C/CN2CCCC2)c2ccccn2)cc1 [NCGC00024714]		> 30
OC(c1ccccc1)(c1ccccc1)C1CN2CCC1CC2 (stereo not drawn) [NCGC00160492]		> 30
CN(C)CC[C@@H](c1ccc(Br)cc1)c1ccccn1 [NCGC00162100]	59.8	23.3
CC(C)(C)c1ccc(C(=O)CCCN2CCC(OC(c3ccccc3)c3ccccc3)CC2)cc1 [NCGC00164603]		> 30
NC1=NCC2c3ccccc3Cc3ccccc3N12 (stereo not drawn) [NCGC00165791]		> 100
CN(C)CCOC(c1ccc(Cl)cc1)c1ccccn1 (stereo not drawn) [NCGC00166141]	35.5	26.3
Cc1cccn2c(=O)c(-c3nnn[n-]3)cnc12.[K+] [NCGC00167434]	24.2	> 30
CC(C)c1ccc2oc3nc(N)c(C(=O)O)cc3c(=O)c2c1 [NCGC00167472]	59.8	
CN1CCCC(n2nc(Cc3ccc(Cl)cc3)c3ccccc3c2=O)CC1 (stereo not drawn) [NCGC00177979]	96.4	4.3
COc1ccc(CN(CCN(C)C)c2ncccn2)cc1 [NCGC00178145]		> 30
CN(c1nccc(=O)[nH]1)C1CCN(c2nc3ccccc3n2Cc2ccc(F)cc2)CC1 [NCGC00181013]		> 30
CC(CN1c2ccccc2Sc2cccnc21)N(C)C (stereo not drawn) [NCGC00181101]		> 30
